Patent publication US20230159463A1, “BENZONITRIC HETEROCYCLIC COMPOUND, PREPARATION METHOD THEREFOR AND USE THEREOF” (SHANGHAI ZHONGZE THERAPEUTICS, CO. LTD., priority 2020, published 2023)
Read-outs that look alike come from different tables or passages of the source.

Assays:
glioma cell line U-87MG = experiment: In vitro anti-proliferative activity (CCK8), U-87MG; type: cell-based; conditions: Homo sapiens, read-out: U-87MG (Glioma) Inh % in 10 μM
HDAC1 = target: T1, HDAC1 (Homo sapiens, UniProt Q13547); experiment: HDAC1 inhibitor screening kit (Biovision), in vitro inhibitory activity; type: biochemical
T1 construct: purchased Biovision Company
T1 sequence (Q13547 whole entry): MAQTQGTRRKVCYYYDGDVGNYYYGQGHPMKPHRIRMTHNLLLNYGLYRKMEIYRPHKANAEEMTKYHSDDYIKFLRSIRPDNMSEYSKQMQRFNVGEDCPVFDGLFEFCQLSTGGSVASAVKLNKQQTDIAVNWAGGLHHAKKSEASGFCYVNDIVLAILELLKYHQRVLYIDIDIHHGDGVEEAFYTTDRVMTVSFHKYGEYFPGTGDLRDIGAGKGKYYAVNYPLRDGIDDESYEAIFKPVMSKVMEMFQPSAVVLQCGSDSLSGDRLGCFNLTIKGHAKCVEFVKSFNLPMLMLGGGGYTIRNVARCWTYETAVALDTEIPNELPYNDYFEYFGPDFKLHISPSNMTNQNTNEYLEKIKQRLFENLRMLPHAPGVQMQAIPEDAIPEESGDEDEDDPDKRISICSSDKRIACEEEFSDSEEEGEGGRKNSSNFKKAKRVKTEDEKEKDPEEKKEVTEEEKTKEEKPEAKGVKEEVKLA
Protocol: (§1) The in vitro inhibitory activity of histone deacetylase of the compound was determined according to the instructions of HDAC1 and HDAC6 inhibitor screening kit (Biovision Company).

[1] = Maximum tolerance dose by intragastric administration; conditions: ICR, mouse, in vivo, po; mice, single intragastric administration, 14 days observation; read-out: maximum tolerated dose
Protocol: 40 ICR mice, half male and half […], weighing 18 to 20 g, were divided into 4 groups with 10 animals in each group. After 6 hours of fasting, the test samples in each group were taken with sterilized plastic syringe and orally gavaged at a volume of 0.3 mL/10 g. The general physical signs of animals and the death of animals were recorded at 1, 2 and 4 hours after administration. […] The dead animals were dissected to observe whether there were any visible pathological changes in the organs of the animals, and pathological examinations were carried out on suspicious tissues and organs.

hERG potassium channels = target: T2, hERG potassium channels (Homo sapiens, UniProt Q12809); experiment: hERG potassium channel whole-cell patch clamp; type: cell-based; conditions: hERG-HEK293 cells, IKr current
T2 construct: expressed in transfected cells
T2 sequence (Q12809 whole entry): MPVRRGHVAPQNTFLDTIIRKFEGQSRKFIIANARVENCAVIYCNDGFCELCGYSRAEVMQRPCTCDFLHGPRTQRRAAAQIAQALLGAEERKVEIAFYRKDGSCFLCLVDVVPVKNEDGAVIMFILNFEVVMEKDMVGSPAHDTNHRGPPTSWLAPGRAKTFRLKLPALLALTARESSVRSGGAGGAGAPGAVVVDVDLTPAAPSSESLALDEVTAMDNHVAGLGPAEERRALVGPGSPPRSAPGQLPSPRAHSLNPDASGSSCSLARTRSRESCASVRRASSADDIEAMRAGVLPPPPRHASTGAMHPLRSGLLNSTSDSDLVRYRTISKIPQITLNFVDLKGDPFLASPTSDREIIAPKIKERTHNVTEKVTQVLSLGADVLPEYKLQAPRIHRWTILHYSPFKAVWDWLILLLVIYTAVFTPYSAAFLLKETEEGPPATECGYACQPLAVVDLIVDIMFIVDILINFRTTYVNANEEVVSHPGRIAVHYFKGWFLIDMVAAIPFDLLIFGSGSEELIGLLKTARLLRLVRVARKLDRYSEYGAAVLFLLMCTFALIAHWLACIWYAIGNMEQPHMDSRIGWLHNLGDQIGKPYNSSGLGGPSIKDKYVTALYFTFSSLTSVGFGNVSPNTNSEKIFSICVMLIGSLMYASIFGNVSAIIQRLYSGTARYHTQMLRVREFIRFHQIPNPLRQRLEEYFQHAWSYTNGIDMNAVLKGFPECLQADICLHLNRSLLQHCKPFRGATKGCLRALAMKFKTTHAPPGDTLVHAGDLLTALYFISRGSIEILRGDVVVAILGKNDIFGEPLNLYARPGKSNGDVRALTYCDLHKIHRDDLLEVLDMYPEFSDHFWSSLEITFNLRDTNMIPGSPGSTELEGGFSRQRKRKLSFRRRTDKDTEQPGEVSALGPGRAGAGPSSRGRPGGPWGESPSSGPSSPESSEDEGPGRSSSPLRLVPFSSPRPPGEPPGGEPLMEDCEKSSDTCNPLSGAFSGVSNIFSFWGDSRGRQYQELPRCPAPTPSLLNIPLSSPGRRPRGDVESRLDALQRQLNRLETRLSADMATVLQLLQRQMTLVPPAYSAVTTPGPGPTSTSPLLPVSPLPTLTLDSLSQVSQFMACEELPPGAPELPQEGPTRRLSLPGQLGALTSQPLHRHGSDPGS
Text: Whole-cell patch clamp technique was used to record the changes of hERG current (IKr) after different concentrations of compounds acted on HEK293 cells (hERG-HEK293 steady-state cells) expressing hERG potassium channels to study the half inhibitory concentration (IC50) of the above compounds on IKr.

[2] = tested on: MRC-5 human normal embryo lung fibroblast; experiment: In vitro anti-proliferative activity (CCK8), MRC-5 normal cells; type: cell-based; conditions: read-out: MRC-5 (Normal cell line) Inh % in 10 μM
HDAC6 = target: T3, HDAC6 (Homo sapiens, UniProt Q9UBN7); experiment: HDAC6 inhibitor screening kit (Biovision), in vitro inhibitory activity; type: biochemical
T3 construct: purchased Biovision Company
T3 sequence (Q9UBN7 1-1215): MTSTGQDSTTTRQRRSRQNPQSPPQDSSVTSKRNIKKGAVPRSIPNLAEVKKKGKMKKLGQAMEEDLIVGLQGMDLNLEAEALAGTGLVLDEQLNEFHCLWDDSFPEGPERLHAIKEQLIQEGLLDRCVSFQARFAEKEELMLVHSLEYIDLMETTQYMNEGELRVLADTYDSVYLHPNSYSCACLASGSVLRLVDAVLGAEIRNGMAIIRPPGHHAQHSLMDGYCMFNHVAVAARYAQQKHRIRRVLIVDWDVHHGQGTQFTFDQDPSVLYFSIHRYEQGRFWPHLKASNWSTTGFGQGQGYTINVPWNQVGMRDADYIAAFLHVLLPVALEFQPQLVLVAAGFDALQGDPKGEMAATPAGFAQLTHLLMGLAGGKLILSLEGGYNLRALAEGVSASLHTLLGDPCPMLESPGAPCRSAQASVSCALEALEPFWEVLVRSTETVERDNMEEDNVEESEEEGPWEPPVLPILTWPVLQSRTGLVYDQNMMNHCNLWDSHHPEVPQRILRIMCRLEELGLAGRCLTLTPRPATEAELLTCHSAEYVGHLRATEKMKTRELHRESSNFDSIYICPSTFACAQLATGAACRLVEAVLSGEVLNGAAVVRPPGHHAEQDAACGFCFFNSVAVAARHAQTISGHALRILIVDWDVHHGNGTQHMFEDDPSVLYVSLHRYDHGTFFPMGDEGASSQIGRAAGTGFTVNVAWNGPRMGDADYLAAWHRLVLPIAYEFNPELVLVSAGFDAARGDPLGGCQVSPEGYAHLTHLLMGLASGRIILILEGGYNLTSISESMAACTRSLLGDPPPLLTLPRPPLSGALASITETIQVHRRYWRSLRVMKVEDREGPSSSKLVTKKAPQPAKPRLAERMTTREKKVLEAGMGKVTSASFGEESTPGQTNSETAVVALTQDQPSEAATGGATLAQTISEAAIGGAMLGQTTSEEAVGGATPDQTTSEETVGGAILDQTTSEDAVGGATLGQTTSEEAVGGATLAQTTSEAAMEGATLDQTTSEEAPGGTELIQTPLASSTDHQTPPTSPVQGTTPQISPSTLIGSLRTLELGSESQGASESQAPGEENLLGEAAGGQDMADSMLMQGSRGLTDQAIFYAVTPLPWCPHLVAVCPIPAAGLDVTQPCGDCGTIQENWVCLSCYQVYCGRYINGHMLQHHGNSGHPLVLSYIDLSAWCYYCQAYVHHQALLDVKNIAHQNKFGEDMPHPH
Protocol: as §1

[3] = tested on: human liver cancer cell line HepG2; experiment: In vitro anti-proliferative activity (CCK8), HepG2; type: cell-based; conditions: read-out: Hep G2 (Liver cancer) Inh % in 10 μM
Protocol: (§2) The specific results are shown in the table (unit: […] Test method: The tumor cells in the logarithmic growth phase with good growth status were inoculated into 96-well plates at 4×10^3 per well, and 8 duplicate wells were set up in each group. The cells were cultured in a cell incubator, after the cells adhered to the wall, […]. […] The experiment was repeated 3 times, and the average of the experimental results was taken as the final experimental result, and the inhibition rate was calculated.

[4] = tested on: human lung cancer cell line A549; experiment: In vitro anti-proliferative activity (CCK8), A549; type: cell-based; conditions: read-out: A549 (Lung cancer) Inh % in 10 μM
Protocol: as §2

[5] = tested on: myeloma cell line RPMI 8226; experiment: In vitro anti-proliferative activity (CCK8), RPMI 8226; type: cell-based; conditions: Homo sapiens, 48 hours, class symbol, read-out: RPMI 8226 (Myeloma) Inh % in 10 μM
Protocol: as §2

[6] = tested on: mixed cells and primary neurons in rat cortex; experiment: Protective effect on HCA-induced neuronal cell damage; type: cell-based; conditions: HCA 5 mmol/L; test concentration 0.1, 1.0 and 10.0 μM; compared with Tubastatin A at the same dose
[7] = tested on: myeloma cell line RPMI 8226; experiment: In vitro anti-proliferative activity (CCK8), RPMI 8226; type: cell-based; conditions: Homo sapiens, RPMI-8226, 48 h, read-out: RPMI 8226 (Myeloma) Inh % in 10 μM
[8] = 10 μM, 48 hours, CCK8, class symbol
[9] = MRC5, 10 μM, 48 hours, CCK8, class symbol
[10] = HepG2, 10 μM, 48 hours, CCK8, class symbol
[11] = A549, 10 μM, 48 hours, CCK8, class symbol

| Compound | inhibition at 10 µM (glioma cell line U-87MG; [8]) [%] | IC50 (HDAC1) [nM] | MTD at 14 days [1] [mg/kg] | IC50 (hERG potassium channels) [nM] | inhibition at 10 µM [2, 9] [%] | IC50 (HDAC6) [nM] | inhibition at 10 µM [3, 10] [%] | inhibition at 10 µM [4, 11] [%] | inhibition at 10 µM [5] [%] | protective effect against HCA-induced neuronal excitotoxicity (cell survival rate) [6] | inhibition at 10 µM [7] [%] | inhibition at 10 µM (glioma cell line U-87MG; 48 h) [%] | inhibition at 10 µM ([2]; MRC5, 48 h) [%] | inhibition at 10 µM ([3]; HepG2, 48 h) [%] | inhibition at 10 µM ([4]; A549, 48 h) [%] |
| --- | --- | --- | --- | --- | --- | --- | --- | --- | --- | --- | --- | --- | --- | --- | --- |
| COc1ccc(C2CC2)c2c1CCN(Cc1ccc(C(=O)NO)cc1)CC2 [Compound T-28, 4-((6-cyclopropyl-9-methoxy-1,2,4,5-tetrahydro-3H-benzo[d]azepin-3-yl)methyl)-N-hydroxybenzamide] | 80 to 90 | > 500 | > 1000 | > 10000 | < 50 | 22 | 90 to 100 | 50 to 70 | 90 to 100 | stronger than that of the HDAC6 inhibitor compound Tubastatin A | – | – | – | – | – |
| O=C(NO)c1ccc(CN2CCCC(O)c3ccccc32)cc1 (stereo not shown) [Compound T-19, 4-((5-hydroxy-2,3,4,5-tetrahydro-1H-benzo[b]azepin-1-yl)methyl)-N-hydroxybenzamide] | 90 to 100 | 442 | > 1000 | > 10000 | < 50 | 6.4 | 90 to 100 | 50 to 70 | 90 to 100 | stronger than that of the HDAC6 inhibitor compound Tubastatin A | – | – | – | – | – |
| O=C(NO)c1ccc(CN2CCCOc3ccccc32)cc1 [Compound T-15, 4-((3,4-dihydrobenzo[b][1,4]oxazepin-5(2H)-yl)methyl)-N-hydroxybenzamide] | 80 to 90 | 367 | > 1000 | > 10000 | < 50 | 6.2 | 90 to 100 | 50 to 70 | 90 to 100 | stronger than that of the HDAC6 inhibitor compound Tubastatin A | – | – | – | – | – |
| O=C(NO)c1ccc(CN2CCCSc3ccccc32)cc1 [Compound T-16, 4-((3,4-dihydrobenzo[b][1,4]thiazepin-5(2H)-yl)methyl)-N-hydroxybenzamide] | – | 254 | > 1000 | > 10000 | – | 1.2 | – | – | – | stronger than that of the HDAC6 inhibitor compound Tubastatin A | 90 to 100 | 90 to 100 | < 50 | 90 to 100 | 70 to 80 |
| O=C(NO)c1ccc(CN2CCCCc3ccc(Cl)cc32)cc1 [Compound T-2, 4-((8-chloro-2,3,4,5-tetrahydro-1H-benzo[b]azepin-1-yl)methyl)-N-hydroxybenzamide] | 80 to 90 | 406 | > 1000 | > 10000 | < 50 | 14 | 90 to 100 | 70 to 80 | 90 to 100 | stronger than that of the HDAC6 inhibitor compound Tubastatin A | – | – | – | – | – |
| O=C(CCCCCCNC(=O)c1cnc(N(c2ccccc2)c2ccccc2)nc1)NO [Rocilinostat (ACY-1215), Rocilinostat, reference compound] | – | – | – | – | – | – | – | – | – | – | 99.3 | 42.1 | 46.7 | 93.4 | 51.6 |
